# Earlier results in paper PMC5641599 (Molecular Metabolism, 2017).
# Read-outs that look alike come from different tables or passages of the source.
# Columns and labels:
# Conditions in all cases: cited from earlier work
# MC4R variants [1] = test system: MC4R variants
# MC4R variants [2] = test system: MC4R variants; remark: listed apart in the source
# MC4R variants [3] = test system: MC4R variants; remark: listed apart in the source
# MC4R variants [4] = test system: MC4R variants; remark: listed apart in the source
# [5] = ref Wang ZQ, Biochim Biophys Acta, 2011
# [6] = COS-7 cell line, ref Brumm H, Obesity, 2012
# [7] = COS-7 cell line, ref Hughes DA, Hum Genet, 2009
# [8] = ref Xiang Z, Biochemistry, 2006
# [9] = ref Lubrano-Berthelier C, J Clin Endocrinol Metab, 2006
# [10] = ref Srinivasan S, J Clin Invest, 2004
# [11] = ref Xiang Z, Biochemistry, 2010
# [12] = ref Rong R, Clin Endocrinol, 2006
# [13] = MC4R D126Y, ref Wang ZQ, Biochim Biophys Acta, 2011
# [14] = MC4R D146N, ref Wang ZQ, Biochim Biophys Acta, 2011
# [15] = MC4R F201L, ref Wang ZQ, Biochim Biophys Acta, 2011
# [16] = MC4R G231V, ref Wang ZQ, Biochim Biophys Acta, 2011
# [17] = MC4R I170del, ref Wang ZQ, Biochim Biophys Acta, 2011
# [18] = MC4R I186V, ref Wang ZQ, Biochim Biophys Acta, 2011
# [19] = MC4R I195S, ref Wang ZQ, Biochim Biophys Acta, 2011
# [20] = MC4R P260Q, ref Wang ZQ, Biochim Biophys Acta, 2011
# [21] = MC4R Q307X, ref Wang ZQ, Biochim Biophys Acta, 2011
# [22] = MC4R T248A, ref Huang H, J Mol Endocrinol, 2012
# [23] = COS-7 cell line, ref Hinney A, J Clin Endocrinol Metab, 2006
# [24] = ref Fan ZC, J Cell Mol Med, 2009
substance,measurement,setting,value
MT-II,cAMP Emax - Ligand no.2 (% of WT),"MC4R variants [1]; MC4R A219V, ligand no.2 MT-II, ref Larsen LH, J Clin Endocrinol Metab, 2005",34.0 % of WT
same,cAMP Emax - Ligand no.2,"MC4R variants [1]; MC4R S36Y, ref Larsen LH, J Clin Endocrinol Metab, 2005",86.0 % of WT
S30F/G252S,Cell surface expression,"MC4R variants [2]; both variants on the same allele, ref Lubrano-Berthelier C, Hum Mol Genet, 2003",60 % of WT
same,Cell surface expression,"MC4R variants [2]; both variants on the same allele, ref Nijenhuis WA, J Biol Chem, 2003",69 % of WT
Q307X,Basal activity,MC4R variants [3]; [5],20 % of WT
same,Cell surface expression,MC4R variants [2]; [6],40 % of WT
same,Cell surface expression,"MC4R variants [2]; ref Santoro N, BMC Med Genet, 2009",31 % of WT
same,Cell surface expression,MC4R variants [2]; [5],20 % of WT
G34A,Cell surface expression,"MC4R variants [2]; ref Moore BS, PLoS One, 2014",85 % of WT
S36T,Basal activity,MC4R variants [3]; [7],83 % of WT
same,Cell surface expression,MC4R variants [2]; [7],107 % of WT
"Y35X (MVNSTHRGMHTSLHLWNRSSYRLHSNASESLGKG; nonsense Y35X; UniProt P32245 1-34, looked up, fragment)",Cell surface expression,MC4R variants [2]; [6],0 % of WT
same,Cell surface expression,MC4R variants [2]; [8],5 % of WT
D37G,Basal activity,"MC4R variants [3]; ref Hughes DA, Hum Genet, 2009",83 % of WT
same,Cell surface expression,"MC4R variants [2]; ref Hughes DA, Hum Genet, 2009",100 % of WT
"W16X (MVNSTHRGMHTSLHL; nonsense W16X; UniProt P32245 1-15, looked up, fragment)",Cell surface expression,MC4R variants [2]; [6],5 % of WT
same,Cell surface expression,"MC4R variants [2]; HEK293 cell line, ref Bolze F, Pharmacogenomics J, 2013",0 % of WT
G32E,Basal activity,"MC4R variants [3]; limited data, ref Ahituv N, Am J Hum Genet, 2007",70 % of WT
"E61X (MVNSTHRGMHTSLHLWNRSSYRLHSNASESLGKGYSDGGCYEQLFVSPEVFVTLGVISLL; nonsense E61X; UniProt P32245 1-60, looked up, fragment)",Cell surface expression,MC4R variants [2]; [6],5 % of WT
C40Y,Basal activity,MC4R variants [3]; [7],108 % of WT
same,Cell surface expression,MC4R variants [2]; [7],49 % of WT
S30F,Basal activity,"MC4R variants [3]; COS-7 cell line, ref Hinney A, J Clin Endocrinol Metab, 2003",140 % of WT
same,Cell surface expression,"MC4R variants [2]; S30F variant alone, ref Lubrano-Berthelier C, Hum Mol Genet, 2003",120 % of WT
"Y35X;D37V (MVNSTHRGMHTSLHLWNRSSYRLHSNASESLGKG; nonsense Y35X; D37V; UniProt P32245 1-34, looked up, fragment)",Basal activity,MC4R variants [3]; [9],10 % of WT
same,Cell surface expression,MC4R variants [2]; [9],0 % of WT
R18H,Basal activity,MC4R variants [3]; [9],46 % of WT
same,Cell surface expression,MC4R variants [2]; [9],150 % of WT
same,Cell surface expression,MC4R variants [2]; [10],95 % of WT
same,Cell surface expression,MC4R variants [2]; [11],85 % of WT
R18L,Cell surface expression,MC4R variants [2]; [10],95 % of WT
same,Cell surface expression,MC4R variants [2]; [11],95 % of WT
Y35C,Basal activity,MC4R variants [3]; [12],172 % of WT
same,Cell surface expression,MC4R variants [2]; [12],100 % of WT
R7H,Cell surface expression,MC4R variants [2]; [10],80 % of WT
same,Cell surface expression,MC4R variants [2]; [11],100 % of WT
Y287X,Cell surface expression,MC4R variants [2]; [8],30 % of WT
same,Cell surface expression,"MC4R variants [2]; ref Yeo GS, Hum Mol Genet, 2003",0 % of WT
C40R,Basal activity,"MC4R variants [3]; COS-7 cell line, ref Tarnow P, J Biol Chem, 2003",112 % of WT
same,Basal activity,MC4R variants [3]; [12],157 % of WT
same,Cell surface expression,MC4R variants [2]; [12],100 % of WT
β-MSH,cAMP Emax - Ligand no.2,"MC4R variants [1]; MC4R C40Y, COS-7 cell line, ref Hughes DA, Hum Genet, 2009",98.0 % of WT
same,cAMP Emax - Ligand no.2 (% of WT),"MC4R variants [1]; MC4R C271R, COS-7 cell line, ref Tarnow P, J Biol Chem, 2003",22.5 % of WT
same,cAMP Emax - Ligand no.2,"MC4R variants [1]; MC4R D37G, ref Hughes DA, Hum Genet, 2009",75.0 % of WT
same,cAMP Emax - Ligand no.2 (% of WT),MC4R variants [1]; [13],0.0 % of WT
same,cAMP Emax - Ligand no.2 (% of WT),MC4R variants [1]; [14],96.1 % of WT
same,cAMP Emax - Ligand no.2 (% of WT),MC4R variants [1]; [15],100.0 % of WT
same,cAMP Emax - Ligand no.2 (% of WT),"MC4R variants [1]; MC4R F202L, COS-7 cell line, ref Hughes DA, Hum Genet, 2009",79.0 % of WT
same,cAMP Emax - Ligand no.2,"MC4R variants [1]; MC4R F280AfsX12, ref Xiang Z, Biochemistry, 2006",0.0 % of WT
same,cAMP Emax - Ligand no.2 (% of WT),"MC4R variants [1]; MC4R G181D, ref Xiang Z, Biochemistry, 2010",0.0 % of WT
same,cAMP Emax - Ligand no.2 (% of WT),MC4R variants [1]; [16],104.9 % of WT
same,cAMP Emax - Ligand no.2 (% of WT),"MC4R variants [1]; MC4R H158R, COS-7 cell line, ref Hinney A, J Clin Endocrinol Metab, 2006",122.0 % of WT
same,cAMP Emax - Ligand no.2 (% of WT),"MC4R variants [1]; MC4R I125K, ref Xiang Z, Biochemistry, 2006",0.0 % of WT
same,cAMP Emax - Ligand no.2 (% of WT),"MC4R variants [1]; MC4R I170V, COS-7 cell line, ref Hughes DA, Hum Genet, 2009",97.0 % of WT
same,cAMP Emax - Ligand no.2,MC4R variants [1]; [17],0.0 % of WT
same,cAMP Emax - Ligand no.2 (% of WT),MC4R variants [1]; [18],65.8 % of WT
same,cAMP Emax - Ligand no.2 (% of WT),MC4R variants [1]; [19],94.1 % of WT
same,cAMP Emax - Ligand no.2,"MC4R variants [1]; MC4R I251WfsX34, ref Xiang Z, Biochemistry, 2010",0.0 % of WT
same,cAMP Emax - Ligand no.2,"MC4R variants [1]; MC4R L211MfsX6, ref Xiang Z, Biochemistry, 2006",0.0 % of WT
same,cAMP Emax - Ligand no.2 (% of WT),"MC4R variants [1]; MC4R M200V, COS-7 cell line, ref Hinney A, J Clin Endocrinol Metab, 2006",91.0 % of WT
same,cAMP Emax - Ligand no.2 (% of WT),MC4R variants [1]; [20],20.0 % of WT
same,cAMP Emax - Ligand no.2 (% of WT),"MC4R variants [1]; MC4R Q156R, COS-7 cell line, ref Hinney A, J Clin Endocrinol Metab, 2006",92.0 % of WT
same,cAMP Emax - Ligand no.2,"MC4R variants [1]; MC4R Q307X, ref Santoro N, BMC Med Genet, 2009",0.0 % of WT
same,cAMP Emax - Ligand no.2,MC4R variants [1]; [21],0.0 % of WT
same,cAMP Emax - Ligand no.2,"MC4R variants [1]; MC4R R7C, COS-7 cell line, ref Hinney A, J Clin Endocrinol Metab, 2006",83.0 % of WT
same,cAMP Emax - Ligand no.2 (% of WT),"MC4R variants [1]; MC4R R236H, COS-7 cell line, ref Hinney A, J Clin Endocrinol Metab, 2006",96.0 % of WT
same,cAMP Emax - Ligand no.2,"MC4R variants [1]; MC4R S36T, COS-7 cell line, ref Hughes DA, Hum Genet, 2009",82.0 % of WT
same,cAMP Emax - Ligand no.2 (% of WT),"MC4R variants [1]; MC4R S136F, COS-7 cell line, ref Tarnow P, Obes Facts, 2008",23.0 % of WT
same,cAMP Emax - Ligand no.2 (% of WT),"MC4R variants [1]; MC4R S191T, COS-7 cell line, ref Hughes DA, Hum Genet, 2009",97.0 % of WT
same,cAMP Emax - Ligand no.2 (% of WT),"MC4R variants [1]; MC4R T162R, COS-7 cell line, ref Ochoa MC, Clin Endocrinol, 2007",80.0 % of WT
same,cAMP Emax - Ligand no.2 (% of WT),MC4R variants [1]; [22],79.5 % of WT
same,cAMP Emax - Ligand no.2 (% of WT),"MC4R variants [1]; MC4R V166I, COS-7 cell line, ref Hinney A, J Clin Endocrinol Metab, 2006",105.0 % of WT
same,cAMP Emax - Ligand no.2 (% of WT),"MC4R variants [1]; MC4R V166I, COS-7 cell line, ref Hughes DA, Hum Genet, 2009",105.0 % of WT
same,cAMP Emax - Ligand no.2 (% of WT),"MC4R variants [1]; MC4R W174C, ref Xiang Z, Biochemistry, 2010",0.0 % of WT
same,cAMP Emax - Ligand no.2,"MC4R variants [1]; MC4R Y35X, ref Xiang Z, Biochemistry, 2006",0.0 % of WT
same,Binding Bmax - Ligand no.2 (% of WT),MC4R variants [4]; [13],0.0 % of WT
same,Binding Bmax - Ligand no.2 (% of WT),MC4R variants [4]; [14],23.9 % of WT
same,Binding Bmax - Ligand no.2 (% of WT),MC4R variants [4]; [15],116.0 % of WT
same,Binding Bmax (% of WT),"MC4R variants [4]; MC4R F280L, ref Wang ZQ, Biochim Biophys Acta, 2011",57.4 % of WT
same,Binding Bmax - Ligand no.2 (% of WT),MC4R variants [4]; [16],123.2 % of WT
same,Binding Bmax (% of WT),"MC4R variants [4]; MC4R H76R, ref Wang ZQ, Biochim Biophys Acta, 2011",81.7 % of WT
same,Binding Bmax (% of WT),"MC4R variants [4]; MC4R I69R, ref Wang ZQ, Biochim Biophys Acta, 2011",0.0 % of WT
same,Binding Bmax - Ligand no.2,MC4R variants [4]; [17],0.0 % of WT
same,Binding Bmax - Ligand no.2 (% of WT),MC4R variants [4]; [18],150.5 % of WT
same,Binding Bmax - Ligand no.2 (% of WT),MC4R variants [4]; [19],71.2 % of WT
same,Binding Bmax (% of WT),"MC4R variants [4]; MC4R I289L, ref Wang ZQ, Biochim Biophys Acta, 2011",127.4 % of WT
same,Binding Bmax (% of WT),"MC4R variants [4]; MC4R M79I, ref Wang ZQ, Biochim Biophys Acta, 2011",98.2 % of WT
same,Binding Bmax - Ligand no.2 (% of WT),MC4R variants [4]; [20],0.0 % of WT
same,Binding Bmax - Ligand no.2,MC4R variants [4]; [21],0.0 % of WT
same,Binding Bmax (% of WT),"MC4R variants [4]; MC4R R305S, ref Wang ZQ, Biochim Biophys Acta, 2011",128.1 % of WT
same,Binding Bmax (% of WT),"MC4R variants [4]; MC4R S94N, ref Wang ZQ, Biochim Biophys Acta, 2011",41.0 % of WT
same,Binding Bmax - Ligand no.2 (% of WT),MC4R variants [4]; [22],125.0 % of WT
same,Binding Bmax (% of WT),"MC4R variants [4]; MC4R Y332C, ref Wang ZQ, Biochim Biophys Acta, 2011",129.6 % of WT
same,Binding Bmax (% of WT),"MC4R variants [4]; MC4R Y332H, ref Wang ZQ, Biochim Biophys Acta, 2011",150.0 % of WT
S36Y,Cell surface expression,MC4R variants [2]; [11],90 % of WT
R7C,Basal activity,MC4R variants [3]; [23],133 % of WT
same,Basal activity,MC4R variants [3]; [24],100 % of WT
same,Cell surface expression,MC4R variants [2]; [23],100 % of WT
same,Cell surface expression,MC4R variants [2]; [24],45 % of WT
